Assay results reported in PubChem BioAssay AID2060494 (Molecular Pharmacology Branch, DTP, NCI, 2025).

Test system: 435261-313-R-J1-PDC complex spheroid viability
Assay: Anticancer human tumor 435261-313-R-J1-PDC patient-derived colon adenocarcinoma cell line growth inhibition [GQUAD]
Settings: for IC50: curve of first compound; for viability, T/C: stronger effect = lower value
Method in brief: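 Tumor cells were grown as complex spheroids with HUVEC endothelial cells and mesenchymal stem cells as stroma. G-quadruplex stabilizers were combined with targeted agents over half-log dilutions from near the clinical Cmax, or from 10 microM.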

[1] = second compound 0.0316 µM, first compound 0.0316 µM
[2] = second compound 0.0316 µM, first compound 0.1 µM
[3] = second compound 0.0316 µM, first compound 0.316 µM
[4] = second compound 0.0316 µM, first compound 1 µM
[5] = second compound 0.0316 µM, first compound 3.16 µM
[6] = second compound 0.0316 µM, first compound 10 µM
[7] = second compound 0.1 µM, first compound 0.0316 µM
[8] = second compound 0.1 µM, first compound 0.1 µM
[9] = second compound 0.1 µM, first compound 0.316 µM
[10] = second compound 0.1 µM, first compound 1 µM
[11] = second compound 0.1 µM, first compound 3.16 µM
[12] = second compound 0.1 µM, first compound 10 µM
[13] = second compound 0.316 µM, first compound 0.0316 µM
[14] = second compound 0.316 µM, first compound 0.1 µM
[15] = second compound 0.316 µM, first compound 0.316 µM
[16] = second compound 0.316 µM, first compound 1 µM
[17] = second compound 0.316 µM, first compound 3.16 µM
[18] = second compound 0.316 µM, first compound 10 µM
[19] = second compound 1 µM, first compound 0.0316 µM
[20] = second compound 1 µM, first compound 0.1 µM
[21] = second compound 1 µM, first compound 0.316 µM
[22] = second compound 1 µM, first compound 1 µM
[23] = second compound 1 µM, first compound 3.16 µM
[24] = second compound 1 µM, first compound 10 µM
[25] = second compound 3.16 µM, first compound 0.0316 µM
[26] = second compound 3.16 µM, first compound 0.1 µM
[27] = second compound 3.16 µM, first compound 0.316 µM
[28] = second compound 3.16 µM, first compound 1 µM
[29] = second compound 3.16 µM, first compound 3.16 µM
[30] = second compound 3.16 µM, first compound 10 µM
[31] = second compound 10 µM, first compound 0.0316 µM
[32] = second compound 10 µM, first compound 0.1 µM
[33] = second compound 10 µM, first compound 0.316 µM
[34] = second compound 10 µM, first compound 1 µM
[35] = second compound 10 µM, first compound 3.16 µM
[36] = second compound 10 µM, first compound 10 µM
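Further: spheroids exposed to the agents for seven days before readout.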
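Wherever viability, T/C is given: percent of vehicle control viability with DMSO wells as 100%.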

In the case of `C=CC(=O)N1CCN(c2nc(=O)n(-c3c(C)ccnc3C(C)C)c3nc(-c4c(O)cccc4F)c(F)cc23)C(C)C1` (stereo unspecified) + Cc1cnc(CNC(=O)c2c(=O)c3ccc(N4CCCN(C)CC4)nc3n3c2sc2ccccc23)cn1, the IC50 (second compound 0.0316 µM) is reported as greater than 10000 nM, the IC50 (second compound 0.1 µM) is reported as greater than 10000 nM and the IC50 (second compound 0.316 µM) is reported as greater than 10000 nM. For the same molecule, the IC50 (second compound 1 µM) was less than 31.6 nM, the IC50 (second compound 3.16 µM) was less than 31.6 nM and the IC50 (second compound 10 µM) was less than 31.6 nM. It also gave a viability, T/C [1] of 76.1%, a viability, T/C [2] of 59.5% and a viability, T/C [3] of 86.8%. It also gave a viability, T/C [4] of 68.1%, a viability, T/C [5] of 98.3% and a viability, T/C [6] of 67.4%. It also gave a viability, T/C [7] of 47.9%, a viability, T/C [8] of 63.3% and a viability, T/C [9] of 56.6%. It also gave a viability, T/C [10] of 63.3%, a viability, T/C [11] of 63.8% and a viability, T/C [12] of 65.7%. For the same molecule, the viability, T/C [13] was 56.4%, the viability, T/C [14] was 59.3% and the viability, T/C [15] was 60%. It also gave a viability, T/C [16] of 52%, a viability, T/C [17] of 71.1% and a viability, T/C [18] of 65.1%. The viability, T/C [19] was 37.4%, the viability, T/C [20] was 39.1% and the viability, T/C [21] was 48%. The viability, T/C [22] was 47.5%, the viability, T/C [23] was 48.8% and the viability, T/C [24] was 47.9%. For the same molecule, the viability, T/C [25] was 19.2%, the viability, T/C [26] was 21.6% and the viability, T/C [27] was 24.2%. For the same molecule, the viability, T/C [28] was 29.7%, the viability, T/C [29] was 23.5% and the viability, T/C [30] was 14.3%. For the same molecule, the viability, T/C [31] was 0.21%, the viability, T/C [32] was 0.22% and the viability, T/C [33] was 0.17%. It also gave a viability, T/C [34] of 0.25%, a viability, T/C [35] of 0.22% and a viability, T/C [36] of 0.16%.

Molecule `CC1COCCN1c1cc(C2(O)CC3CCC(C2)O3)c2cnn(-c3ccn[nH]3)c2n1` (stereo unspecified) + Cc1cnc(CNC(=O)c2c(=O)c3ccc(N4CCCN(C)CC4)nc3n3c2sc2ccccc23)cn1 has an IC50 (second compound 0.0316 µM) of 95.2 nM, an IC50 (second compound 0.1 µM) of 105 nM and an IC50 (second compound 0.316 µM) of 48.5 nM. The IC50 (second compound 1 µM) was less than 31.6 nM, the IC50 (second compound 3.16 µM) was less than 31.6 nM and the IC50 (second compound 10 µM) was less than 31.6 nM. The viability, T/C [1] was 59.8%, the viability, T/C [2] was 48% and the viability, T/C [3] was 42.8%. It also gave a viability, T/C [4] of 24.6%, a viability, T/C [5] of 23.5% and a viability, T/C [6] of 11.2%. It also gave a viability, T/C [7] of 49.5%, a viability, T/C [8] of 57.9% and a viability, T/C [9] of 38.2%. The viability, T/C [10] was 26.6%, the viability, T/C [11] was 22.3% and the viability, T/C [12] was 10.1%. It also gave a viability, T/C [13] of 51.5%, a viability, T/C [14] of 47.9% and a viability, T/C [15] of 37.2%. For the same molecule, the viability, T/C [16] was 27.7%, the viability, T/C [17] was 18.8% and the viability, T/C [18] was 8.98%. It also gave a viability, T/C [19] of 38.5%, a viability, T/C [20] of 36.1% and a viability, T/C [21] of 23.1%. For the same molecule, the viability, T/C [22] was 15.7%, the viability, T/C [23] was 11.3% and the viability, T/C [24] was 4.12%. For the same molecule, the viability, T/C [25] was 12.3%, the viability, T/C [26] was 14.2% and the viability, T/C [27] was 6.28%. For the same molecule, the viability, T/C [28] was 0.12%, the viability, T/C [29] was 0.15% and the viability, T/C [30] was 0.09%. It also gave a viability, T/C [31] of 0.8%, a viability, T/C [32] of 0.14% and a viability, T/C [33] of 0.17%. For the same molecule, the viability, T/C [34] was 0.18%, the viability, T/C [35] was 0.19% and the viability, T/C [36] was 0.13%.

For `CC[C@@]1(O)C(=O)OCc2c1cc1n(c2=O)Cc2cc3c(CN(C)C)c(O)ccc3nc2-1` + Cc1cnc(CNC(=O)c2c(=O)c3ccc(N4CCCN(C)CC4)nc3n3c2sc2ccccc23)cn1, the IC50 (second compound 0.0316 µM) was greater than 316 nM, the IC50 (second compound 0.1 µM) was greater than 316 nM and the IC50 (second compound 0.316 µM) was 113 nM. For the same molecule, the IC50 (second compound 1 µM) was less than 0.999 nM, the IC50 (second compound 3.16 µM) was less than 0.999 nM and the IC50 (second compound 10 µM) was less than 0.999 nM. It also gave a viability, T/C (second compound 0.0316 µM, first compound 0.000999 µM) of 66.6%, a viability, T/C (second compound 0.0316 µM, first compound 0.00316 µM) of 63% and a viability, T/C (second compound 0.0316 µM, first compound 0.00999 µM) of 73%. For the same molecule, the viability, T/C [1] was 53%, the viability, T/C (second compound 0.0316 µM, first compound 0.0999 µM) was 60.6% and the viability, T/C [3] was 72.1%. For the same molecule, the viability, T/C (second compound 0.1 µM, first compound 0.000999 µM) was 57.3%, the viability, T/C (second compound 0.1 µM, first compound 0.00316 µM) was 69% and the viability, T/C (second compound 0.1 µM, first compound 0.00999 µM) was 58.7%. The viability, T/C [7] was 50.9%, the viability, T/C (second compound 0.1 µM, first compound 0.0999 µM) was 63.2% and the viability, T/C [9] was 53.4%. For the same molecule, the viability, T/C (second compound 0.316 µM, first compound 0.000999 µM) was 53.1%, the viability, T/C (second compound 0.316 µM, first compound 0.00316 µM) was 59.2% and the viability, T/C (second compound 0.316 µM, first compound 0.00999 µM) was 50.5%. For the same molecule, the viability, T/C [13] was 55.8%, the viability, T/C (second compound 0.316 µM, first compound 0.0999 µM) was 46.2% and the viability, T/C [15] was 49.3%. It also gave a viability, T/C (second compound 1 µM, first compound 0.000999 µM) of 31.9%, a viability, T/C (second compound 1 µM, first compound 0.00316 µM) of 48.8% and a viability, T/C (second compound 1 µM, first compound 0.00999 µM) of 35.2%. It also gave a viability, T/C [19] of 43.4%, a viability, T/C (second compound 1 µM, first compound 0.0999 µM) of 47.6% and a viability, T/C [21] of 34.1%. It also gave a viability, T/C (second compound 3.16 µM, first compound 0.000999 µM) of 16.9%, a viability, T/C (second compound 3.16 µM, first compound 0.00316 µM) of 20.2% and a viability, T/C (second compound 3.16 µM, first compound 0.00999 µM) of 21.8%. For the same molecule, the viability, T/C [25] was 16%, the viability, T/C (second compound 3.16 µM, first compound 0.0999 µM) was 12.1% and the viability, T/C [27] was 8.56%. It also gave a viability, T/C (second compound 10 µM, first compound 0.000999 µM) of 0.19%, a viability, T/C (second compound 10 µM, first compound 0.00316 µM) of 0.19% and a viability, T/C (second compound 10 µM, first compound 0.00999 µM) of 0.22%. It also gave a viability, T/C [31] of 0.23%, a viability, T/C (second compound 10 µM, first compound 0.0999 µM) of 0.23% and a viability, T/C [33] of 0.22%.
